Measured values reported in ChEMBL document CHEMBL1641584 (Bioorg Med Chem Lett, 2011).
Active and inactive are the calls of the source. The rule behind the calls is not given here.

Molecular target: not listed separately
Test: Inhibition of guinea pig protein-glutamine gamma-glutamyltransferase 2 assessed as fluorescent intensity of monodansyl cadaverine
Design: species or system Cavia porcellus

Row | SMILES | IC50 [nM]
1 | COC(=O)C(CSSCC(NCCC(=O)c1ccc(I)s1)C(=O)OC)NCCC(=O)c1ccc(I)s1 (stereo not drawn) | 240
2 | COC(=O)C(CSSCC(NCCC(=O)c1ncc(C)s1)C(=O)OC)NCCC(=O)c1ncc(C)s1 (stereo not drawn) | 4000
3 | O=C(CCNCCSSCCNCCC(=O)c1ccc(Br)s1)c1ccc(Br)s1 | 120
4 | COC(=O)C(CSSCC(NCCC(=O)c1cccs1)C(=O)OC)NCCC(=O)c1cccs1 (stereo not drawn) | 400
5 | COC(=O)C(CSSCC(NCCC(=O)c1ccc2ccccc2c1)C(=O)OC)NCCC(=O)c1ccc2ccccc2c1 (stereo not drawn) | 19000
6 | N#Cc1ccc(C(=O)CCNCCSSCCNCCC(=O)c2ccc(C#N)cc2)cc1 | 1100
7 | COC(=O)C(CCSSCCC(NCCC(=O)c1ccc(Br)s1)C(=O)OC)NCCC(=O)c1ccc(Br)s1 (stereo not drawn) | 99
8 | O=C(CCNCCSSCCNCCC(=O)c1cc2ccccc2s1)c1cc2ccccc2s1 | 170
9 | COC(=O)C(CCSSCCC(NCCC(=O)c1cc2ccccc2s1)C(=O)OC)NCCC(=O)c1cc2ccccc2s1 (stereo not drawn) | 120
10 | O=C(CCNCCSSCCNCCC(=O)c1ccc(I)cc1)c1ccc(I)cc1 | 890
11 | COC(=O)C(CSSCC(NCCC(=O)c1sccc1Br)C(=O)OC)NCCC(=O)c1sccc1Br (stereo not drawn) | 5700
12 | COC(=O)C(CSSCC(NCCC(=O)c1ccc(Br)cc1)C(=O)OC)NCCC(=O)c1ccc(Br)cc1 (stereo not drawn) | 11000
13 | O=C(CCNCCSSCCNCCC(=O)c1ccsc1)c1ccsc1 | 1600
14 | O=C(CCNCCSSCCNCCC(=O)c1ccco1)c1ccco1 | 420
15 | COC(=O)C(CSSCC(NCCC(=O)c1nccs1)C(=O)OC)NCCC(=O)c1nccs1 (stereo not drawn) | 9700
16 | O=C(CCNCCSSCCNCCC(=O)c1cccs1)c1cccs1 | 510
17 | COC(=O)C(CSSCC(NCCC(=O)c1ncccn1)C(=O)OC)NCCC(=O)c1ncccn1 (stereo not drawn) | 5500
18 | COC(=O)C(CSSCC(NCCC(=O)c1ccc(Cl)s1)C(=O)OC)NCCC(=O)c1ccc(Cl)s1 (stereo not drawn) | 190
19 | O=C(CCNCCSSCCNCCC(=O)c1ccc2ccccc2c1)c1ccc2ccccc2c1 | 2000

Row | SMILES | IC50 [nM]
20 | COC(=O)C(CCSSCCC(NCCC(=O)c1cccs1)C(=O)OC)NCCC(=O)c1cccs1 (stereo not drawn) | 3600
21 | O=C(CCNCCSSCCNCCC(=O)c1cccnc1)c1cccnc1 | 1400
22 | COC(=O)C(CCSSCCC(NCCC(=O)c1sccc1Br)C(=O)OC)NCCC(=O)c1sccc1Br (stereo not drawn) | 330
23 | O=C(CCNCCSSCCNCCC(=O)c1cccc(Br)n1)c1cccc(Br)n1 | 2600
24 | COC(=O)C(CSSCC(NCCC(=O)c1cc2ccccc2s1)C(=O)OC)NCCC(=O)c1cc2ccccc2s1 (stereo not drawn) | 900
25 | COC(=O)C(CSSCC(NCCC(=O)c1ccc(Br)s1)C(=O)OC)NCCC(=O)c1ccc(Br)s1 (stereo not drawn) | 180
26 | COC(=O)C(CCSSCCC(NCCC(=O)c1ccc(I)s1)C(=O)OC)NCCC(=O)c1ccc(I)s1 (stereo not drawn) | 100
27 | O=C(CCNCCSSCCNCCC(=O)c1ccc(Br)cc1)c1ccc(Br)cc1 | 120
28 | O=C(CCNCCSSCCNCCC(=O)c1ccc(I)s1)c1ccc(I)s1 | 170
29 | COC(=O)C(CSSCC(NCCC(=O)c1ccco1)C(=O)OC)NCCC(=O)c1ccco1 (stereo not drawn) | 2900
30 | COC(=O)C(CCSSCCC(NCCC(=O)c1ccc(Br)cc1)C(=O)OC)NCCC(=O)c1ccc(Br)cc1 (stereo not drawn) | 1600
31 | COC(=O)C(CSSCC(NCCC(=O)c1cccc(Br)n1)C(=O)OC)NCCC(=O)c1cccc(Br)n1 (stereo not drawn) | 1100
32 | O=C(CCNCCSSCCNCCC(=O)c1ccc(Cl)s1)c1ccc(Cl)s1 | 120
33 | O=C(CCNCCSSCCNCCC(=O)c1ccccc1)c1ccccc1 | 2200
34 | COC(=O)C(CSSCC(NCCC(=O)c1ccc(C#N)cc1)C(=O)OC)NCCC(=O)c1ccc(C#N)cc1 (stereo not drawn) | 1300
35 | O=C(CCNCCSSCCNCCC(=O)c1sccc1Br)c1sccc1Br | 210
36 | COC(=O)C(CSSCC(NCCC(=O)c1ccncc1)C(=O)OC)NCCC(=O)c1ccncc1 (stereo not drawn) | 3400
37 | COC(=O)C(CCSSCCC(NCCC(=O)c1ccc(Cl)s1)C(=O)OC)NCCC(=O)c1ccc(Cl)s1 (stereo not drawn) | 120

Organism: Cavia porcellus
Test: Inhibition of guinea pig protein-glutamine gamma-glutamyltransferase 2-mediated amyloid-beta oligomerization at 0.1 to 10 uM

Row | SMILES | inhibition
38 | NNC(=O)CSc1nc2sc3c(c2c(=O)n1-c1cccc(F)c1)C(c1ccccc1)CCC3 (stereo not drawn) | Active
